The results in this text go back to PubChem BioAssay AID330 (DTP/NCI, 2004).

“And” between values parts separate entries of the source, which are not always exact repeats. Identical values can stand only once. Toxic doses and inconclusive results are not listed.

This test relates to P388 leukemia ip, CD2F1 mice, survival T/C. Briefly: NCI In Vivo Anticancer Drug Screen. Data for tumor model P388 Leukemia (intraperitoneal) in CD2F1 (CDF1) mice. The note with it: endpoint: median survival time, higher = longer survival. The procedure, abridged: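 Mice carrying the transplanted tumor received test compound or vehicle. Survival was recorded in each group, and the value is the treated-group measurement divided by that of the vehicle-treated control group.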

[1] abbreviates: dose: 60.0 mg/kg/injection, schedule: Q01DX005 (ip), vehicle: saline with Tween-80.
The mark [2] stands for this setting: dose: 120.0 mg/kg/injection, schedule: Q01DX005 (ip), vehicle: saline with Tween-80.
The mark [3] stands for this setting: dose: 240.0 mg/kg/injection, schedule: Q01DX005 (ip), vehicle: saline with Tween-80.

Take `NC(CCSCc1ccc(N(CCCl)CCCl)cc1)C(=O)O` (stereo unspecified): the T/C is, setting by setting: (dose: 3.13 mg/kg/injection, schedule: Q04DX003 (ip), vehicle: saline with Tween-80) 154 % of control; (dose: 6.25 mg/kg/injection, schedule: Q01DX009 (ip), vehicle: saline with Tween-80) 118 % of control; (dose: 6.25 mg/kg/injection, schedule: Q04DX003 (ip), vehicle: saline with Tween-80) 163 % of control; (dose: 12.5 mg/kg/injection, schedule: Q01DX009 (ip), vehicle: saline with Tween-80) 122 % of control; (dose: 12.5 mg/kg/injection, schedule: Q04DX003 (ip), vehicle: saline with Tween-80) 190 % of control; (dose: 25.0 mg/kg/injection, schedule: Q01DX009 (ip), vehicle: saline with Tween-80) 163 % of control and 227 % of control. Besides, the T/C is 181 % of control (dose: 25.0 mg/kg/injection, schedule: Q04DX003 (ip), vehicle: saline with Tween-80); 95 % of control (dose: 50.0 mg/kg/injection, schedule: Q01DX009 (ip), vehicle: saline with Tween-80); 263 % of control (dose: 50.0 mg/kg/injection, schedule: Q04DX003 (ip), vehicle: saline with Tween-80); 222 % of control and 231 % of control (dose: 100.0 mg/kg/injection, schedule: Q04DX003 (ip), vehicle: saline with Tween-80).

As for `CN1c2c(C(=O)Nc3nccs3)nn(-c3ccccc3)c2-c2ccccc2S1(=O)=O`, the T/C reads like this: (dose: 50.0 mg/kg/injection, schedule: Q01DX005 (ip), vehicle: saline) 89 % of control; (dose: 100.0 mg/kg/injection, schedule: Q01DX005 (ip), vehicle: saline) 92 % of control; (dose: 200.0 mg/kg/injection, schedule: Q01DX005 (ip), vehicle: saline) 99 % of control.

In the case of `C=C1C(=O)OC2C(OC(C)=O)C(C(=O)OC)CC(O)C/C(CO)=C\C(OC(=O)/C(C)=C/C)C12` (stereo unspecified), the T/C runs as follows: (dose: 2.0 mg/kg/injection, schedule: Q01DX009 (ip), vehicle: Klucel (hydroxypropylcellulose) (HPC)) 115 % of control; (dose: 4.0 mg/kg/injection, schedule: Q01DX009 (ip), vehicle: Klucel (hydroxypropylcellulose) (HPC)) 108 % of control; (dose: 8.0 mg/kg/injection, schedule: Q01DX009 (ip), vehicle: Klucel (hydroxypropylcellulose) (HPC)) 110 % of control; (dose: 16.0 mg/kg/injection, schedule: Q01DX009 (ip), vehicle: Klucel (hydroxypropylcellulose) (HPC)) 100 % of control.

As to `O/C(=C/c1ncnc2ccccc12)c1cccc(Cl)c1`, the T/C was 102 % of control under setting [1] and 92 % of control under setting [2].

`Nc1n[n+](-c2ccc3ccccc3c2)no1`: the T/C (dose: 3.13 mg/kg/injection, schedule: Q01DX009 (ip), vehicle: water) is 98 % of control; the T/C (dose: 6.25 mg/kg/injection, schedule: Q01DX009 (ip), vehicle: water) is 109 % of control; the T/C (dose: 12.5 mg/kg/injection, schedule: Q01DX009 (ip), vehicle: water) was 120 % of control; the T/C (dose: 25.0 mg/kg/injection, schedule: Q01DX009 (ip), vehicle: water) was 120 % of control.

As for `O=C(NCCN1CCOCC1)c1cc2ccccc2oc1=O`, the T/C is, setting by setting: under setting [1], 93 % of control; under setting [2], 91 % of control; under setting [3], 92 % of control.

With `CNC(=O)N(C)c1nc(-c2ccccc2)c(-c2ccccc2)n1Cc1ccc(Cl)cc1`, the T/C is, setting by setting: (dose: 50.0 mg/kg/injection, schedule: Q04DX002 (ip), vehicle: saline with Tween-80) 94 % of control; (dose: 100.0 mg/kg/injection, schedule: Q04DX002 (ip), vehicle: saline with Tween-80) 99 % of control; (dose: 200.0 mg/kg/injection, schedule: Q04DX002 (ip), vehicle: saline with Tween-80) 92 % of control.

Regarding `CC(=O)OC1C(OC(=O)c2ccccc2)C=CC2OC21COC(=O)c1ccccc1` (stereo unspecified), the T/C (dose: 25.0 mg/kg/injection, schedule: Q01DX005 (ip), vehicle: saline + alcohol) was 97 % of control; the T/C (dose: 50.0 mg/kg/injection, schedule: Q01DX005 (ip), vehicle: saline + alcohol) is 105 % of control; the T/C (dose: 100.0 mg/kg/injection, schedule: Q01DX005 (ip), vehicle: saline + alcohol) is 98 % of control; the T/C (dose: 200.0 mg/kg/injection, schedule: Q01DX005 (ip), vehicle: saline + alcohol) is 91 % of control.

For `Cc1ccc([N+](=O)[O-])cc1NC(=O)NNC(=O)CNC(=O)NCc1ccco1`, the T/C reads like this: under setting [1], 93 % of control; under setting [2], 89 % of control; under setting [3], 89 % of control.
